Laboratory results: patent US6518261B2, “Use of eugenol in combination with other chemopreventative agents as prophylaxis for cancers” (Oncology Sciences Corporation, priority 2000, dated 2003)

Legend:
suspect cells = assay: Cell cycle analysis; assay type: cell-based; details: cell cycle analysis data
Source text: Therefore induction of cell death pathway by 2-ME and growth inhibition by eugenol through a different pathway presents a tremendous new weapon for use in preventing and combating cancer.

LNCaP cells = assay: Cell growth by trypan blue exclusion cell counting, confirmed by cell proliferation assay kit; assay type: cell-based, human; details: 72 hours of treatment, FIG. 2
Method: These cells were treated with different concentrations of eugenol (0.5, 1, 3, 5 and 10 mM). Cell growth was monitored every 24 hours by counting the increase in the cell number using trypan blue exclusion assay.
Cells were treated with either eugenol (0.25, 0.5, 0.75 or 1 mM) or 2-ME (0.5, 1, 2 or 3 mM) or both (0.25, 0.5, 0.75 or 1 mM of eugenol along with 0.5 mM of 2-ME). Cell growth was measured following 72 hours of treatment as described above.

C=CCc1ccc(O)c(OC)c1 [eugenol]
effect on cell cycle profile / mechanism of growth inhibition (suspect cells): without any significant alterations in the cells cycle profile
inhibition of growth of LNCaP cells (LNCaP cells; 0.25 mM of eugenol): about 30%

COc1cc2c(cc1O)CC[C@@H]1[C@@H]2CC[C@]2(C)[C@@H](O)CC[C@@H]12 [2-ME, 2-methoxyestradiol]
effect on cell cycle profile / mechanism of growth inhibition (suspect cells): inducing apoptosis and blocking cells in G2/M phase
inhibition of growth of LNCaP cells (LNCaP cells; 0.5 mM of 2-ME): about 20%
